Results on 13 compounds are retold here after US11759462B2, “Spirocyclic compounds as tryptophan hydroxylase inhibitors” (priority 2013, dated 2023).

pIC50: −log10 of the molar value. Where two headings read alike, the source gives them in different places.

The target in assay [1] is T1, Recombinant human TPH1 (MBP tagged) (Homo sapiens, UniProt P17752).
T1 construct: cloning full length human TPH1 cDNA in to a bacterial pMAL-c5E expression vector; made in house; host or cells: E. coli BL21 (DE3)
T1 sequence (P17752 1-444): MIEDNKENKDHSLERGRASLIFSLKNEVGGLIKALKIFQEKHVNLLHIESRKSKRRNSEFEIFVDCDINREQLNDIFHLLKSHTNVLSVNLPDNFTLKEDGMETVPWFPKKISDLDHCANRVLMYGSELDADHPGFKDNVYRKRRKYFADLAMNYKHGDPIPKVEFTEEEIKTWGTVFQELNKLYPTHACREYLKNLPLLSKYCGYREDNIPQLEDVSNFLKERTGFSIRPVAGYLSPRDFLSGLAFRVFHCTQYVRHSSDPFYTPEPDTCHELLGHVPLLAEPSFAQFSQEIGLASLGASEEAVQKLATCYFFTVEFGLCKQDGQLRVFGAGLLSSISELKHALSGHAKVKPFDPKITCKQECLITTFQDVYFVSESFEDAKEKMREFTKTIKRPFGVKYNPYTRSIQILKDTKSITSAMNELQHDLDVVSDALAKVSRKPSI
The assay can be described thus: TPH1 in vitro inhibition assay (kinetic fluorescence). Type of assay: biochemical. A digest of the protocol: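 Final mix: 15 nM MBP-TPH1, 30 μM Trp, 36 μM 6-methyltetrahydropterin, 25 μM ferrous ammonium sulfate, 50 mM MES pH 7.1, 1% DMSO, room temperature.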

Assay [2] has as its system jejunal mucosal 5-HT in mice (C57 BL6). The assay can be described thus: Reduction of mucosal 5-HT concentrations (Example C, repeated oral dosing). Conditions: P-value class. Type of assay: in vivo, mouse. The method, then: The efficacy of the TPH1 inhibitors of the invention was assessed for the ability to decrease intestinal serotonin concentration in mice. Mice (C57 BL6) were administered an oral dose of 10 or 50 mg/kg of the test article in the evening. […] Following an overnight fast, each animal was euthanized by exsanguination under isoflurane anesthesia. Jejunal intestinal mucosa was isolated and homogenized in […] of a buffer containing 0.3M trichloroacetic acid, 0.1M sodium acetate, 10 mM EDTA, 20 mM sodium bisulfate and 50 mM ascorbic acid. Following centrifugation the 5-HT levels in the supernatants were measured by HPLC. The remaining mucosal pellet was solubilized overnight at 37° C. in a 0.1% sodium dodecyl sulfate buffer in 0.1N NaOH followed by determination of protein concentrations using a BCA protein assay (Pierce, Rockford, Ill.). 5-HT levels were normalized to protein and data were expressed as mean percent reduction of mucosal 5-HT levels relative to vehicle control±SEM (percent 5-HT reduction). All animal studies were carried out with protocols approved by the Institutional Animal Care and Use Committee. P-values, indicating statistical significance of the data (ANOVA) are provided in the table: * refers to P<0.05,** refers to P<0.01, *** refers to P<0.005, and **** refers to P<0.0005.

The test system is the same in assay [3]. The assay can be described thus: Intestinal 5-HT depletion assay (Example B, single 150 mg/kg oral dose). Type of assay: in vivo, mouse. The conditions noted are these: one day after oral administration of a single 150 mg/kg dose, P-value class (ANOVA). The method, boiled down:
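C57 BL6 mice received one 150 mg/kg oral gavage dose; jejunal mucosa was homogenized in acidic trichloroacetic acid buffer and 5-HT measured by HPLC. Levels normalized to BCA protein, expressed as mean percent reduction versus vehicle ± SEM; ANOVA significance.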

Setting [4] is: read-out: TPH1 Range (TPH1 inhibition IC50).
Setting [5] is: after three oral doses (first 10 or 50 mg/kg, then two doses of 50 mg/kg) (title).

As to `Cc1ccn(-c2cc(-c3ccc(OC(C)C)cc3)ccc2[C@@H](Oc2cc(N3CCC4(CC3)CN[C@H](C(=O)O)C4)nc(N)n2)C(F)(F)F)n1` [Example 1l, (S)-8-(2-amino-6-((R)-2,2,2-trifluoro-1-(4′-isopropoxy-3-(3-methyl-1H-pyrazol-1-yl)-[1,1′-biphenyl]-4-yl)ethoxy)pyrimidin-4-yl)-2,8-diazaspiro[4.5]decane-3-carboxylic acid], in assay [1] (setting [4]), the pIC50 was more than 7.30. Also, the “Efficacy (statistical significance of reduction of mucosal 5-HT concentrations relative to vehicle)” value in assay [2] (setting [5]) is recorded as “*** (*** refers to P<0.005)”; in assay [3], “**** (and refers to P<0.0005)”.
For the compound `Cc1ccn(-c2cc(-c3ccc(C)c(C)c3)ccc2[C@@H](Oc2cc(N3CCC4(CC3)CN[C@H](C(=O)O)C4)nc(N)n2)C(F)(F)F)n1` [Example 1m, (S)-8-(2-amino-6-((R)-1-(3′,4′-dimethyl-3-(3-methyl-1H-pyrazol-1-yl)-[1,1′-biphenyl]-4-yl)-2,2,2-trifluoroethoxy)pyrimidin-4-yl)-2,8-diazaspiro[4.5]decane-3-carboxylic acid], in assay [1] (TPH1 Range (TPH1 inhibition IC50)), the pIC50 was more than 7.30. The “Efficacy (statistical significance of reduction of mucosal 5-HT concentrations relative to vehicle)” value in assay [2] ((title)) was “* (* refers to P<0.05)”; in assay [3] it was “*** (*** refers to P<0.005)”.
For `COc1cc(-c2ccc([C@@H](Oc3cc(N4CCC5(CC4)CN[C@H](C(=O)O)C5)nc(N)n3)C(F)(F)F)c(-n3ccc(C)n3)c2)ccn1` [Example 1n, (S)-8-(2-amino-6-((R)-2,2,2-trifluoro-1-(4-(2-methoxypyridin-4-yl)-2-(3-methyl-1H-pyrazol-1-yl)phenyl)ethoxy)pyrimidin-4-yl)-2,8-diazaspiro[4.5]decane-3-carboxylic acid], the pIC50 in assay [1] (setting [4]) is more than 7.30. In addition, the “Efficacy (statistical significance of reduction of mucosal 5-HT concentrations relative to vehicle)” value in assay [2] (setting [5]) is listed as “*** (*** refers to P<0.005)”; in assay [3] it was “** (** refers to P<0.01)”.
In the case of `CCCCc1ccc([C@@H](Oc2cc(N3CCC4(CC3)CN[C@H](C(=O)O)C4)nc(N)n2)C(F)(F)F)c(-n2ccc(C)n2)c1` [Example 12c, (S)-8-(2-amino-6-((R)-1-(4-butyl-2-(3-methyl-1H-pyrazol-1-yl)phenyl)-2,2,2-trifluoroethoxy)pyrimidin-4-yl)-2,8-diazaspiro[4.5]decane-3-carboxylic acid], in assay [1] (setting [4]), the pIC50 is more than 7.30. The “Efficacy (statistical significance of reduction of mucosal 5-HT concentrations relative to vehicle)” value in assay [2] (setting [5]) and in assay [3] was “*** (*** refers to P<0.005)” each time.
For `CCCc1ccc([C@@H](Oc2cc(N3CCC4(CC3)CN[C@H](C(=O)OCC)C4)nc(N)n2)C(F)(F)F)c(-n2ccc(C)n2)c1` [Example 63bf, (S)-ethyl 8-(2-amino-6-((R)-2,2,2-trifluoro-1-(2-(3-methyl-1H-pyrazol-1-yl)-4-propylphenyl)ethoxy)pyrimidin-4-yl)-2,8-diazaspiro[4.5]decane-3-carboxylate], the “Efficacy (statistical significance of reduction of mucosal 5-HT concentrations relative to vehicle)” value in assay [2] (setting [5]) is listed as “*** (*** refers to P<0.005)”; in assay [3], “**** (and refers to P<0.0005)”.
Take `CCCCc1ccc([C@@H](Oc2cc(N3CCC4(CC3)CN[C@H](C(=O)OCC)C4)nc(N)n2)C(F)(F)F)c(-n2ccc(C)n2)c1` [Example 63bg, (S)-ethyl 8-(2-amino-6-((R)-1-(4-butyl-2-(3-methyl-1H-pyrazol-1-yl)phenyl)-2,2,2-trifluoroethoxy)pyrimidin-4-yl)-2,8-diazaspiro[4.5]decane-3-carboxylate]: the figures for the “Efficacy (statistical significance of reduction of mucosal 5-HT concentrations relative to vehicle)” value in assay [2] (setting [5]) and in assay [3] were “*** (*** refers to P<0.005)” and “**** (and refers to P<0.0005)”, respectively.
As to `CCOC(=O)[C@@H]1CC2(CCN(c3cc(O[C@H](c4cc(-c5ccc(C)c(C)c5)ccc4-n4ccc(C)n4)C(F)(F)F)nc(N)n3)CC2)CN1` [Example 63bn, (S)-ethyl 8-(2-amino-6-((R)-1-(3′,4′-dimethyl-4-(3-methyl-1H-pyrazol-1-yl)-[1,1′-biphenyl]-3-yl)-2,2,2-trifluoroethoxy)pyrimidin-4-yl)-2,8-diazaspiro[4.5]decane-3-carboxylate], the figures for the “Efficacy (statistical significance of reduction of mucosal 5-HT concentrations relative to vehicle)” value in assay [2] (setting [5]) and in assay [3] were “**** (**** refers to P<0.0005)” and “**** (and refers to P<0.0005)”, respectively.
The matching figures for `CCCc1ccc(-n2ccc(C)n2)c([C@@H](Oc2cc(N3CCC4(CC3)CN[C@H](C(=O)OCC)C4)nc(N)n2)C(F)(F)F)c1` [Example 63bo, (S)-ethyl 8-(2-amino-6-((R)-2,2,2-trifluoro-1-(2-(3-methyl-1H-pyrazol-1-yl)-5-propylphenyl)ethoxy)pyrimidin-4-yl)-2,8-diazaspiro[4.5]decane-3-carboxylate]: “*** (*** refers to P<0.005)” and “**** (and refers to P<0.0005)”.
With `CCOC(=O)[C@@H]1CC2(CCN(c3cc(O[C@H](c4cc(CC)ccc4-n4ccc(C)n4)C(F)(F)F)nc(N)n3)CC2)CN1` [Example 63bp, (S)-ethyl 8-(2-amino-6-((R)-1-(5-ethyl-2-(3-methyl-1H-pyrazol-1-yl)phenyl)-2,2,2-trifluoroethoxy)pyrimidin-4-yl)-2,8-diazaspiro[4.5]decane-3-carboxylate], the “Efficacy (statistical significance of reduction of mucosal 5-HT concentrations relative to vehicle)” value in assay [2] (setting [5]) was “*** (*** refers to P<0.005)”; in assay [3] it was “**** (and refers to P<0.0005)”.
For `CCOC(=O)[C@@H]1CC2(CCN(c3cc(O[C@H](c4ccc(Cl)cc4-c4cccc(S(N)(=O)=O)c4)C(F)(F)F)nc(N)n3)CC2)CN1` [Example 63ch, (S)-ethyl 8-(2-amino-6-((R)-1-(5-chloro-3′-sulfamoyl-[1,1′-biphenyl]-2-yl)-2,2,2-trifluoroethoxy)pyrimidin-4-yl)-2,8-diazaspiro[4.5]decane-3-carboxylate], in that order: “*** (*** refers to P<0.005)” and “*** (*** refers to P<0.005)”.
Turning to `CCOC(=O)[C@@H]1CC2(CCN(c3cc(O[C@H](c4ccc(Cl)cc4-c4cccc(S(C)(=O)=O)c4)C(F)(F)F)nc(N)n3)CC2)CN1` [Example 63cj, (S)-ethyl 8-(2-amino-6-((R)-1-(5-chloro-3′-(methylsulfonyl)-[1,1′-biphenyl]-2-yl)-2,2,2-trifluoroethoxy)pyrimidin-4-yl)-2,8-diazaspiro[4.5]decane-3-carboxylate], the “Efficacy (statistical significance of reduction of mucosal 5-HT concentrations relative to vehicle)” value is given as “** (** refers to P<0.01)” in assay [2] (setting [5]) and “*** (*** refers to P<0.005)” in assay [3].
Take `CCOC(=O)[C@@H]1CC2(CCN(c3cc(O[C@H](c4ccc(-c5ccc6ncccc6c5)cc4)C(F)(F)F)nc(N)n3)CC2)CN1` [Example 63cl, (S)-ethyl 8-(2-amino-6-((R)-2,2,2-trifluoro-1-(4-(quinolin-6-yl)phenyl)ethoxy)pyrimidin-4-yl)-2,8-diazaspiro[4.5]decane-3-carboxylate]: the “Efficacy (statistical significance of reduction of mucosal 5-HT concentrations relative to vehicle)” value in assay [2] ((title)) and in assay [3] was “*** (*** refers to P<0.005)” in each case.
As to `CCOC(=O)c1ccc(-c2ccc(-n3ccc(C)n3)c([C@@H](Oc3cc(N4CCC5(CC4)CN[C@H](C(=O)OCC)C5)nc(N)n3)C(F)(F)F)c2)cc1` [Example 63dc, (S)-ethyl 8-(2-amino-6-((R)-1-(4′-(ethoxycarbonyl)-4-(3-methyl-1H-pyrazol-1-yl)-[1,1′-biphenyl]-3-yl)-2,2,2-trifluoroethoxy)pyrimidin-4-yl)-2,8-diazaspiro[4.5]decane-3-carboxylate], the “Efficacy (statistical significance of reduction of mucosal 5-HT concentrations relative to vehicle)” value in assay [2] (setting [5]) and in assay [3] was “*** (*** refers to P<0.005)” each time.

For orientation: pIC50 means the negative decadic logarithm of the IC50, by convention in mol/L.
